According to ChEMBL document CHEMBL5352410, “Discovery of novel selenium-containing azole derivatives as antifungal agents by exploiting the hydrophobic cleft of CYP51” (Eur J Med Chem, 2022):
Values after ≈ are worked out from the molar mass of the structure shown.

Columns and labels:
Candida albicans [1] = test: Antifungal activity against Candida albicans sc5314 by CLSI based broth microdilution method; format: functional
Candida albicans [2] = test: Antifungal activity against Candida albicans by CLSI based broth microdilution method; format: functional
Nakaseomyces glabratus = test: Antifungal activity against Candida glabrata by CLSI based broth microdilution method; format: functional
Candida parapsilosis = test: Antifungal activity against Candida parapsilosis by CLSI based broth microdilution method; format: functional; details: Lodderomyces parapsilosis
Pichia kudriavzevii = test: Antifungal activity against Pichia kudriavzevii by CLSI based broth microdilution method; format: functional
[Candida] zeylanoides = Antifungal activity against Candida zeylanoides by CLSI based broth microdilution method; format: functional; details: Dujonia zeylanoides
Cryptococcus neoformans = test: Antifungal activity against Cryptococcus neoformans by CLSI based broth microdilution method; format: functional
Aspergillus fumigatus = test: Antifungal activity against Aspergillus fumigatus by CLSI based broth microdilution method; format: functional
Candida albicans [3] = test: Antifungal activity against FCZ-resistant Candida albicans CaR by CLSI based broth microdilution method; format: functional
Candida albicans [4] = test: Antifungal activity against FCZ-resistant Candida albicans 17# by CLSI based broth microdilution method; format: functional
Candida albicans [5] = test: Antifungal activity against FCZ-resistant Candida albicans 632 by CLSI based broth microdilution method; format: functional
Candida albicans [6] = test: Antifungal activity against FCZ-resistant Candida albicans 901 by CLSI based broth microdilution method; format: functional
Candida albicans [7] = test: Antifungal activity against FCZ-resistant Candida albicans 904 by CLSI based broth microdilution method; format: functional
[8] = target: T1, Lanosterol 14-alpha demethylase (Candida albicans (strain SC5314 / ATCC MYA-2876) (Yeast), UniProt P10613); test: Inhibition of CYP51 of Candida albicans ATCC SC5314 assessed as decrease in ergosterol level by measuring residual activity at 1 ug/ml incubated for 16 hrs by GC-MS analysis (reference value: 98.3 %); details: at 1 µg/mL
T1 sequence (P10613 whole entry): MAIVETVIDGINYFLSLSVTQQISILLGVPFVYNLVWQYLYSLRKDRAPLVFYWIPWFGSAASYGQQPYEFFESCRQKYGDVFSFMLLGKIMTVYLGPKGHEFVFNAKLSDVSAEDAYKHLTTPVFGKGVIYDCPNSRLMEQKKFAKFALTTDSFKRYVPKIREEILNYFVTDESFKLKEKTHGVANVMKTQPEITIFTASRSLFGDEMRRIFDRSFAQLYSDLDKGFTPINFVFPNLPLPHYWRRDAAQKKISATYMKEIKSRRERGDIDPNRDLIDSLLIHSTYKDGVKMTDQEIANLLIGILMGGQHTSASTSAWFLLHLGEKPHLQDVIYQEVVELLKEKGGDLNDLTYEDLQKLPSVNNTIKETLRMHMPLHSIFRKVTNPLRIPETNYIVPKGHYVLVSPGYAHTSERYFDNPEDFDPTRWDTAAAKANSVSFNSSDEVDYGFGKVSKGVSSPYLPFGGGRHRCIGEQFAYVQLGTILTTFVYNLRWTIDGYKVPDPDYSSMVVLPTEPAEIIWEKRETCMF

[9] = target: T1, Lanosterol 14-alpha demethylase; test: Inhibition of CYP51 of Candida albicans ATCC SC5314 assessed as decrease in ergosterol level by measuring residual activity at 2 ug/ml incubated for 16 hrs by GC-MS analysis (reference value: 98.3 %); details: at 2 µg/mL
[10] = target: T1, Lanosterol 14-alpha demethylase; test: Inhibition of CYP51 of Candida albicans ATCC SC5314 assessed as decrease in ergosterol level by measuring residual activity at 4 ug/ml incubated for 16 hrs by GC-MS analysis (reference value: 98.3 %); details: at 4 µg/mL
[11] = target: T1, Lanosterol 14-alpha demethylase; test: Inhibition of CYP51 of Candida albicans ATCC SC5314 assessed as decrease in ergosterol level by measuring residual activity at 8 ug/ml incubated for 16 hrs by GC-MS analysis (reference value: 98.3 %); details: at 8 µg/mL
[12] = target: T1, Lanosterol 14-alpha demethylase; test: Inhibition of CYP51 of Candida albicans ATCC SC5314 assessed as increase in obtusifoliol level at 1 ug/ml incubated for 16 hrs by GC-MS analysis (reference value: 0 %); set-up: scale not given: the % may be the effect or the level left; details: at 1 µg/mL
[13] = target: T1, Lanosterol 14-alpha demethylase; test: Inhibition of CYP51 of Candida albicans ATCC SC5314 assessed as increase in obtusifoliol level at 2 ug/ml incubated for 16 hrs by GC-MS analysis (reference value: 0 %); set-up: scale not given: the % may be the effect or the level left; details: at 2 µg/mL
[14] = target: T1, Lanosterol 14-alpha demethylase; test: Inhibition of CYP51 of Candida albicans ATCC SC5314 assessed as increase in obtusifoliol level at 4 ug/ml incubated for 16 hrs by GC-MS analysis (reference value: 0 %); set-up: scale not given: the % may be the effect or the level left; details: at 4 µg/mL
[15] = target: T1, Lanosterol 14-alpha demethylase; test: Inhibition of CYP51 of Candida albicans ATCC SC5314 assessed as increase in obtusifoliol level at 8 ug/ml incubated for 16 hrs by GC-MS analysis (reference value: 0 %); set-up: scale not given: the % may be the effect or the level left; details: at 8 µg/mL
[16] = target: T1, Lanosterol 14-alpha demethylase; test: Inhibition of CYP51 of Candida albicans ATCC SC5314 assessed as increase in lanosterol level at 1 ug/ml incubated for 16 hrs by GC-MS analysis (reference value: 1.7 %); set-up: scale not given: the % may be the effect or the level left; details: at 1 µg/mL
[17] = target: T1, Lanosterol 14-alpha demethylase; test: Inhibition of CYP51 of Candida albicans ATCC SC5314 assessed as increase in lanosterol level at 2 ug/ml incubated for 16 hrs by GC-MS analysis (reference value: 1.7 %); set-up: scale not given: the % may be the effect or the level left; details: at 2 µg/mL
[18] = target: T1, Lanosterol 14-alpha demethylase; test: Inhibition of CYP51 of Candida albicans ATCC SC5314 assessed as increase in lanosterol level at 4 ug/ml incubated for 16 hrs by GC-MS analysis (reference value: 1.7 %); set-up: scale not given: the % may be the effect or the level left; details: at 4 µg/mL
[19] = target: T1, Lanosterol 14-alpha demethylase; test: Inhibition of CYP51 of Candida albicans ATCC SC5314 assessed as increase in lanosterol level at 8 ug/ml incubated for 16 hrs by GC-MS analysis (reference value: 1.7 %); set-up: scale not given: the % may be the effect or the level left; details: at 8 µg/mL
[20] = target: T1, Lanosterol 14-alpha demethylase; test: Inhibition of CYP51 of Candida albicans ATCC SC5314 assessed as increase in eburicol level at 1 ug/ml incubated for 16 hrs by GC-MS analysis (reference value: 0 %); set-up: scale not given: the % may be the effect or the level left; details: at 1 µg/mL
[21] = target: T1, Lanosterol 14-alpha demethylase; test: Inhibition of CYP51 of Candida albicans ATCC SC5314 assessed as increase in eburicol level at 2 ug/ml incubated for 16 hrs by GC-MS analysis (reference value: 0 %); set-up: scale not given: the % may be the effect or the level left; details: at 2 µg/mL
[22] = target: T1, Lanosterol 14-alpha demethylase; test: Inhibition of CYP51 of Candida albicans ATCC SC5314 assessed as increase in eburicol level at 4 ug/ml incubated for 16 hrs by GC-MS analysis (reference value: 0 %); set-up: scale not given: the % may be the effect or the level left; details: at 4 µg/mL
[23] = target: T1, Lanosterol 14-alpha demethylase; test: Inhibition of CYP51 of Candida albicans ATCC SC5314 assessed as increase in eburicol level at 8 ug/ml incubated for 16 hrs by GC-MS analysis (reference value: 0 %); set-up: scale not given: the % may be the effect or the level left; details: at 8 µg/mL
Candida albicans [24] = test: Antibiofilm activity against Candida albicans SC5314 assessed as sessile minimum inhibitory concentration measured after 1.5 hrs by XTT assay; format: functional
Candida albicans [25] = test: Antibiofilm activity against Candida albicans SC5314 assessed as sessile minimum inhibitory concentration measured after 3 hrs by XTT assay; format: functional
Candida albicans [26] = test: Antibiofilm activity against Candida albicans SC5314 assessed as sessile minimum inhibitory concentration measured after 6 hrs by XTT assay; format: functional
Candida albicans [27] = test: Antibiofilm activity against Candida albicans SC5314 assessed as sessile minimum inhibitory concentration measured after 24 hrs by XTT assay; format: functional
Candida albicans [28] = test: Antibiofilm activity against Candida albicans CPCC400616 assessed as sessile minimum inhibitory concentration measured after 1.5 hrs by XTT assay; format: functional
Candida albicans [29] = test: Antibiofilm activity against Candida albicans CPCC400616 assessed as sessile minimum inhibitory concentration measured after 3 hrs by XTT assay; format: functional
Candida albicans [30] = test: Antibiofilm activity against Candida albicans CPCC400616 assessed as sessile minimum inhibitory concentration measured after 6 hrs by XTT assay; format: functional
Candida albicans [31] = test: Antibiofilm activity against Candida albicans CPCC400616 assessed as sessile minimum inhibitory concentration measured after 24 hrs by XTT assay; format: functional

OC(Cn1cncn1)(Cn1cncn1)c1ccc(F)cc1F [FLUCONAZOLE]
MIC (Candida albicans [1]): 1 µg/mL (≈ 3.27 µM) | MIC (Candida albicans [2]): 4 µg/mL (≈ 13.1 µM) | MIC (Nakaseomyces glabratus): 32 µg/mL (≈ 104 µM) | MIC (Candida parapsilosis): 4 µg/mL (≈ 13.1 µM) | MIC (Pichia kudriavzevii): 32 µg/mL (≈ 104 µM) | MIC ([Candida] zeylanoides): 2 µg/mL (≈ 6.53 µM) | MIC (Cryptococcus neoformans): 4 µg/mL (≈ 13.1 µM) | MIC (Aspergillus fumigatus): > 64 µg/mL | MIC (Candida albicans [3]): > 64 µg/mL | MIC (Candida albicans [4]): > 64 µg/mL | MIC (Candida albicans [5]): > 64 µg/mL | MIC (Candida albicans [6]): > 64 µg/mL | MIC (Candida albicans [7]): > 64 µg/mL | Activity [8]: 3.9% | Activity [9]: 2.5% | Activity [10]: 2.5% | Activity [11]: 1.1% | Activity [12]: 13.9% | Activity [13]: 13.1% | Activity [14]: 12.5% | Activity [15]: 14.8% | Activity [16]: 14.9% | Activity [17]: 15.7% | Activity [18]: 15.4% | Activity [19]: 14.3% | Activity [20]: 67.3% | Activity [21]: 68.7% | Activity [22]: 69.6% | Activity [23]: 69.9% | MIC50 (Candida albicans [24]): > 1020 µg/mL | MIC80 (Candida albicans [24]): > 1020 µg/mL | MIC50 (Candida albicans [25]): > 1020 µg/mL | MIC80 (Candida albicans [25]): > 1020 µg/mL | MIC50 (Candida albicans [26]): > 1020 µg/mL | MIC80 (Candida albicans [26]): > 1020 µg/mL | MIC50 (Candida albicans [27]): > 1020 µg/mL | MIC80 (Candida albicans [27]): > 1020 µg/mL | MIC50 (Candida albicans [28]): > 1020 µg/mL | MIC80 (Candida albicans [28]): > 1020 µg/mL | MIC50 (Candida albicans [29]): > 1020 µg/mL | MIC80 (Candida albicans [29]): > 1020 µg/mL | MIC50 (Candida albicans [30]): > 1020 µg/mL | MIC80 (Candida albicans [30]): > 1020 µg/mL | MIC50 (Candida albicans [31]): > 1020 µg/mL | MIC80 (Candida albicans [31]): > 1020 µg/mL
